The text below walks through data of PubChem BioAssay (NCI).

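Assay format: 96-well plates, 48-hour exposure. Here, GI50 denotes the concentration required for 50% inhibition of growth. TGI: total growth inhibition.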 Where a SMILES comes first, the peptide text is derived from it. The star is where a group is joined. Bn = c1ccc(C*)cc1

Test systems include CAKI-1 renal; MCF7 breast; K-562 leukemia; SR leukemia; U251 CNS; RXF 393 renal; SK-OV-3 ovarian; HOP-62 NSCLC; UACC-62 melanoma; HS 578T breast.
Test in all cases: NCI-60 cell line screen, 48 h

For `CCN1C(=O)N(CC)C2Nn3c(s/c(=C4\C(=O)N(C)c5ccccc54)c3=O)=NC21` (centres undefined), the GI50 in the experiment with CAKI-1 renal was 1.05 µM; in the experiment on MCF7 breast, 1.03 µM; in the experiment with K-562 leukemia, 0.727 µM; in the experiment with SR leukemia, 0.978 µM; in the experiment on U251 CNS, 4.21 µM. Besides, the TGI in the experiment with CAKI-1 renal, in the experiment with MCF7 breast, in the experiment on K-562 leukemia, in the experiment on SR leukemia and with U251 CNS was more than 100 µM each time.
For the compound `c1ccc(-c2cnc(-c3ccc(-c4ncc(-c5ccccc5)o4)cc3)o2)cc1`, the TGI with RXF 393 renal, in the experiment with SK-OV-3 ovarian, in the experiment on MCF7 breast, in the experiment with HOP-62 NSCLC, in the experiment with UACC-62 melanoma and in the experiment with HS 578T breast was more than 100 µM in each case. Besides, the TGI with K-562 leukemia and in the experiment with U251 CNS was more than 100 µM throughout.
Take `C[C@]12CC[C@H](O)C=C1CC[C@@H]1[C@@H]2CC[C@]2(C)C(c3ccc(=O)oc3)CC[C@]12O` (some centres undefined): the TGI is less than 0.0125 µM in the experiment with RXF 393 renal; 0.065 µM in the experiment with SK-OV-3 ovarian; 0.0225 µM in the experiment on CAKI-1 renal; 0.173 µM with MCF7 breast; 0.0269 µM in the experiment with HOP-62 NSCLC; 0.0378 µM with UACC-62 melanoma. The TGI in the experiment with K-562 leukemia was determined as 0.405 µM; with U251 CNS, 0.102 µM.
In the case of `CN(C)P(=O)(Oc1occc1C(O)Cc1ccccc1)N(C)C` (centres undefined), the TGI with RXF 393 renal, in the experiment with SK-OV-3 ovarian, in the experiment on CAKI-1 renal, in the experiment with MCF7 breast, with HOP-62 NSCLC and with U251 CNS was more than 100 µM throughout.
With `COC(=O)C1OC(O[C@H]2CC[C@]3(C)[C@H]4CC=C5[C@@H]6CC(C)(C)CC[C@]6(C(=O)OC6OCC(O)C(O)C6OC6OC(C)C(OC7OCC(OC8OCC(O)C(O)C8O)C(O)C7O)C(O)C6O)[C@H](O)C[C@@]5(C)[C@]4(C)CC[C@H]3C2(C)C)C(O)C(O)C1O` (some centres undefined), the TGI came to 25.8 µM in the experiment with RXF 393 renal; 28.1 µM with SK-OV-3 ovarian; 11.7 µM with CAKI-1 renal; 6.63 µM in the experiment on MCF7 breast; 13 µM in the experiment on HOP-62 NSCLC; 10.6 µM in the experiment with UACC-62 melanoma. The TGI with HS 578T breast came out at 13 µM; in the experiment with U251 CNS it was 18.2 µM.
For `CC(C)(C)c1ccc(OCC(=O)O)c(Cl)c1`, the TGI in the experiment on RXF 393 renal, in the experiment on SK-OV-3 ovarian, in the experiment on CAKI-1 renal, in the experiment with MCF7 breast, in the experiment with HOP-62 NSCLC and in the experiment on UACC-62 melanoma was more than 100 µM in each case. Moreover, the TGI in the experiment with HS 578T breast, in the experiment on K-562 leukemia and in the experiment with U251 CNS was more than 100 µM throughout.
On to `CCCOC(=O)NC(C)C(=O)NC(CCC(=O)NC(CCCC(N)C(=O)O)C(=O)NC(C)C(=O)O)C(=O)O` (centres undefined), for which the TGI in the experiment with CAKI-1 renal is 40.7 µM; in the experiment with MCF7 breast, more than 100 µM; in the experiment with HOP-62 NSCLC, more than 100 µM; in the experiment with UACC-62 melanoma, 33.7 µM; with HS 578T breast, 40.5 µM; with SR leukemia, 32.4 µM. The same compound came in with a TGI in the experiment on U251 CNS of 55.9 µM.
Consider `O=C1c2cccc(NCCNCCO)c2C(=O)c2cccc(NCCNCCO)c21`, for which the TGI was 3.89 µM with RXF 393 renal; 8.45 µM in the experiment with SK-OV-3 ovarian; 4.56 µM in the experiment on CAKI-1 renal; 10.3 µM in the experiment on MCF7 breast; 4.14 µM with HOP-62 NSCLC; 3.81 µM in the experiment on UACC-62 melanoma. Besides, the TGI with K-562 leukemia worked out at 15 µM; with U251 CNS it was 10.9 µM.
For `NC(=O)c1ncn2c1NC(=O)CC2`, the TGI with RXF 393 renal, in the experiment with SK-OV-3 ovarian, with CAKI-1 renal, in the experiment with MCF7 breast, in the experiment with HOP-62 NSCLC and in the experiment with UACC-62 melanoma was more than 100 µM in each case. Also, the TGI with K-562 leukemia and with U251 CNS was more than 100 µM each time.
In the case of `O=C(O)CSC(NC(=O)C(C(F)(F)F)C(F)(F)F)(C(F)(F)F)C(F)(F)F`, the TGI in the experiment on RXF 393 renal, in the experiment on SK-OV-3 ovarian, in the experiment on CAKI-1 renal, in the experiment with HS 578T breast, in the experiment with K-562 leukemia and in the experiment with SR leukemia was more than 100 µM throughout. In addition, the TGI in the experiment with U251 CNS was more than 100 µM.
In the case of `O=C1CCc2ccc3c(c21)CC1(Cc2ccccc2C1)C3`, the TGI in the experiment with SK-OV-3 ovarian was more than 100 µM; with CAKI-1 renal, more than 100 µM; in the experiment on MCF7 breast it was more than 100 µM; in the experiment with HOP-62 NSCLC it was more than 100 µM; in the experiment with HS 578T breast, more than 100 µM; in the experiment on SR leukemia, 78.8 µM. Also, in the experiment on U251 CNS, the TGI stood at 74 µM.
As for `COc1cc2c(c(O)c1O)-c1ccc(OC)c(=O)cc1C(NC(C)=O)CC2` (centres undefined), the TGI with RXF 393 renal is 43.8 µM; with SK-OV-3 ovarian, 60.4 µM; in the experiment with CAKI-1 renal, more than 100 µM; in the experiment with HOP-62 NSCLC, more than 100 µM; in the experiment on UACC-62 melanoma it was 45.7 µM; in the experiment on K-562 leukemia, 29.1 µM. Moreover, the TGI in the experiment on SR leukemia turned out to be 74.3 µM; with U251 CNS it was 25.8 µM.
With `OCC(O)C(O)C(O)/C=N/Nc1nc(O)c(/C=C2\C=Nc3ccccc32)[nH]1` (centres undefined), the TGI in the experiment with RXF 393 renal, in the experiment on SK-OV-3 ovarian, in the experiment on CAKI-1 renal, with MCF7 breast, with HOP-62 NSCLC and with UACC-62 melanoma was more than 100 µM each time. In addition, the TGI in the experiment with HS 578T breast, with K-562 leukemia and with U251 CNS was more than 100 µM each time.
For the compound `Clc1ccc(Cl)c(SCCCN2CCNCC2)c1`, the TGI in the experiment with RXF 393 renal came out at 32.4 µM; in the experiment with SK-OV-3 ovarian it was 32 µM; with CAKI-1 renal it was 41.8 µM; in the experiment with MCF7 breast it was 40 µM; with HOP-62 NSCLC it was 41.7 µM; with UACC-62 melanoma, 7.85 µM. The values for the TGI with HS 578T breast, in the experiment on K-562 leukemia and with U251 CNS were 35.9 µM, 39.9 µM and 34.6 µM, respectively.
Turning to `COC(=O)C(CC(C)C)NC(=O)C(N)Cc1ccc(OCc2ccccc2)cc1` (centres undefined) (H-Tyr(Bn)-Leu-OMe; configuration not given here), the TGI in the experiment on RXF 393 renal, in the experiment on SK-OV-3 ovarian, in the experiment with CAKI-1 renal, with HOP-62 NSCLC, in the experiment with UACC-62 melanoma and with HS 578T breast was more than 10 µM each time. Also, the TGI in the experiment with K-562 leukemia, in the experiment on SR leukemia and in the experiment with U251 CNS was more than 10 µM throughout.
Consider `O=C(O)CC(NC(=O)/C(=C/c1ccccc1O)NC(=O)c1ccccc1)C(=O)O` (centres undefined), for which the TGI with SK-OV-3 ovarian, with CAKI-1 renal, with MCF7 breast, in the experiment with HOP-62 NSCLC, with UACC-62 melanoma and with K-562 leukemia was more than 100 µM throughout. Further, the TGI in the experiment with SR leukemia and in the experiment with U251 CNS was more than 100 µM in each case.
